Where two headings read alike, the source gives them in different places. Where no end group is shown, it is not given here. [ ]: non-standard residue; d: D form. NMeL = CN[C@@H](CC(C)C)C(=O)O
What was measured:
influenza A/PR/8 = format: in vivo, mice; details: uninfected animals treated with EP67, one day later
influenza = assay: ELISA for anti-influenza antibodies in serum; format: in vivo, mice; details: each EP67 treatment group
GBS = assay: Group B Streptococcus (GBS) meningitis model; format: in vivo, CD1 mice; details: 250 ug i.p. at day −1, 0, 1 and 2; brain and blood cfu 96 hours post-injection
Procedure: 8-week old female CD1 mice were treated with 250 ug of EP67 or s-EP67 at day −1, 0, 1 and 2 via i.p. injection. GBS was injected via i.p. at 1×10^9 cfu/mouse. Brains and blood were harvested from each mouse 96 hours post-injection. The tissue was homogenized, diluted and plated to determine the cfu/g bacteria.

MRSA = format: in vivo, C57B1/6 mice; details: for lesion size in CD88 −/− background vs EP67-treated CD88 +/+ background: mouse, in vivo
E. coli strain DH5α = assay: E. coli growth (OD600) with peptide; format: cell-based; details: for effect on log phase growth (OD600): added at OD600 0.2, 500 μg/m, LB or TSB
Procedure: E. coli strain DH5α was grown overnight in mls of Lennox Broth (LB). This culture was diluted to an optical density at […] (OD600) of 0.06. The diluted E.coli was dispensed in 1.5 ml aliquots into separate tubes and 1.5 ml of EP67 (YSFKDMP(MeL)aR (SEQ ID NO: 4)), EP54 (YSFKPMPLaR (SEQ ID NO: 3)), scrambled-EP67 (s-EP67) or scrambled-EP54 in LB was added to obtain a final concentration of 500 μg/ml with the E. coli at an OD600 of 0.03. A culture in LB was also prepared. The cultures were incubated at 37° C. with shaking and the OD600 readings recorded hourly. In order to determine whether the growth media altered the effectiveness of EP67, LB was replaced with an alternative growth media, Tryptic Soy Broth (TSB).
To test the efficacy of EP67 on bacteria growing in log phase, overnight cultures of DH5α were grown in either LB or TSB. The cultures were diluted to an OD600 of 0.03 and incubated at 37° C. with shaking until they reached an OD600 of 0.2 at which time either EP67 or s-EP67, in the appropriate media, were added to a final concentration of 500 μg/m. DH5α control cultures (absence of additives) were also prepared. The tubes were further shaken at 37° C. and OD600 readings were taken hourly.

[1] = test system: S. aureus (USA300 LAC strain) biofilm; assay: S. aureus catheter biofilm model; details: Day 3, relative to sEP67 and PBS vehicle
Procedure: A S. aureus (USA300 LAC strain) biofilm was established on a hollow catheter (1 cm in length) inserted subcutaneously into C57BL/6 mice by introducing 1000 CFUs of S. aureus into the catheter lumen. At the time of infection, one dose of EP67 (200 μg/ml dissolved in PBS) was introduced. At both 24 and 48 h following infection, a series of four injections of EP67 were made; two into each open end of the catheter (20 μl each) and two along the top and bottom at points perpendicular to the middle of the catheter (50 μl each). Samples of the biofilm and surrounding tissue were obtained at Day 3 and assessed for the presence of viable bacteria by standard culture methods.

[2] = test system: bronchoalveolar lavage (BAL) cells; assay: BAL cell FACS analysis after EP67 insufflation; format: in vivo, mice
Procedure: In short, EP67 (3 mg/kg) was delivered directly to the lungs of mice through insufflation (IN). […] Lungs were lavaged with PBS to isolate the bronchoalveolar lavage (BAL) cells for staining and FACS analysis.

influenza A/A/PR/8 = assay: Influenza-induced weight loss after one EP67 treatment; format: in vivo, mice
neutrophils = assay: In vivo neutrophil chemotaxis: histopathology and myeloperoxidase assay; set-up: species or system CD1 mice; details: for histopathologic analysis of skin tissue: 250 μg s.c., no bacteria
Procedure: Neutrophil chemotaxis and myeloperoxidase assay. Neutrophil recruitment at the site of injection by EP67 or sEP67 was examined using an in vivo chemotaxis assay as described previously (van Sorge N M, et al., PloS One 2008; 3:e2964). Briefly, 250 μg EP67 or sEP67 were injected subcutaneously into the right flank of CD1 mice. The injection was repeated after 24 h. Mice were euthanized 4 h after the second injection and the site of injection excised for histopathoglogic analysis or determination of myeloperoxidase (MPO) activity as described previously (van Sorge N M, et al., supra). The assay was carried out two times and the samples analyzed in duplicate.
Neutrophil influx is essential for the protective action of EP67. […] Neutrophil recruitment to the site of EP67 injection was further analyzed using an in vivo neutrophil recruitment assay as described previously (van Sorge N M, et al., supra; and Banerjee A, et al., Cell Microbiol; 12:1576-1588). Neutrophil migration was assessed in skin homogenates following injection of EP67 or sEP67 by determining the level of neutrophil enzyme myeloperoxidase (MPO), which serves as an effective indication of neutrophil infiltration (Banerjee A, et al., supra; and Bradley P P, et al., J Invest Dermatol 1982; 78:206-209). This method compares well with other in vivo assays of neutrophil chemotaxis (van Sorge N M, et al., supra).

[3] = test system: S. aureus (Newman strain); assay: S. aureus in vitro EP67 killing curves; format: cell-based; details: dilution series, LB; higher concentrations
Procedure: 150 μl of LB growth medium plus 50 μl of EP67 or s-EP67 were added to individual culture wells resulting in a dilution series of 6 wells per EP67 or s-EP67. A “no EP67” well (control) was included at the end of each series. S. aureus (Newman strain) was allowed to grow to an OD600 of 0.4 and each well of the dilution series was inoculated with 5μl of the culture. Two wells with no bacterial inoculums were included to serve as controls. Plates were incubated at 37° C. with agitation and the OD600 of each well was measured hourly using a plate reader.

[4] = test system: bronchoalveolar lavage (BAL) cells; assay: BAL cell response of aged mice to EP67 insufflation; format: in vivo
[5] = EP67 3 mg/kg insufflation, one day later

YSFKDMP(MeL)aR (YSFKDMP[NMeL][dA]R; listed as Homo sapiens) [EP67, C-terminal analog of human C5a]
influx of innate effectors (exMacs, neutrophils) in BAL (influenza A/PR/8): displayed this influx of innate effectors | anti-influenza Abs in serum (influenza): high concentration of anti-influenza Abs | protection against GBS infection in the central nervous system (GBS): protects against GBS infections in the central nervous system | lesion size (MRSA; CD88 −/− animals, EP67 vs sEP67): no difference in lesion size | lesion size in CD88 −/− background vs EP67-treated CD88 +/+ background (MRSA): significantly larger | lesion size (MRSA; wild-type CD88 +/+ animals, EP67 compared to sEP67): significantly smaller lesions | effect on bacterial growth (OD600) (E. coli strain DH5α; 500 μg/ml, start OD600 0.03, LB or TSB): direct bacteriostatic/bacteriocidal effects | effect on log phase growth (OD600) (E. coli strain DH5α): significantly reduce and/or stop log phase growth | bacterial burdens in surrounding tissue [1]: significant decrease in bacterial burdens | bacterial burdens within the biofilm [1]: significant decrease in bacterial burdens | CD11b+CD11c− cells (GR-1+ neutrophils) in alveolar space [2, 5]: a large population of CD11b^+CD11c^− cells appeared in the alveolar space | exudate macrophages (exMac) in BAL cells [2, 5]: appearance of cells bearing the CD11b^+CD11c^+ phenotype of exudate macrophages (exMac) | dose dependence of EP67-induced changes in BAL populations ([2]; mouse, in vivo): strict dose-response | time course of the EP67 response in BAL cells: neutrophils ([2]; seven days post EP67 administration): the neutrophils were largely lost | protection from influenza-induced morbidity (influenza A/A/PR/8; treated on day 2 after infection): not associated with any protection | protection from influenza-induced morbidity (influenza A/A/PR/8; treated on day 3 after infection): not associated with any protection | influenza-induced weight loss (influenza A/A/PR/8; treated one day after infection): significant protection from influenza-induced weight loss | influenza-induced weight loss (influenza A/A/PR/8; treated the day before infection, vs non-treated animals): lost significantly less weight | influenza-induced weight loss (influenza A/A/PR/8; treated the day of infection, vs non-treated animals): lost significantly less weight | myeloperoxidase (MPO) levels in skin homogenates (accumulating neutrophils) (neutrophils; 250 μg s.c. twice, 4 h after second injection, compared to sEP67): significantly higher | histopathologic analysis of skin tissue (neutrophils): massive influx of inflammatory cells, including neutrophils | effect on bacterial growth (OD600) [3]: dose dependent inhibitory effect | exMacs and neutrophils in alveolar space [4]: a large population of exMAcs and neutrophils into the alveolar space

(MeL)RMYKPaFDS ([NMeL]RMYKP[dA]FDS) [sEP67, reference compound]
lesion size in CD88 −/− background vs EP67-treated CD88 +/+ background (MRSA): significantly larger | effect on log phase growth (OD600) (E. coli strain DH5α): little or no effect on growth | histopathologic analysis of skin tissue (neutrophils): normal pathology

From patent US10363282B2, “Analogs of C5a and methods of using same” (priority 2010, dated 2019)
